Measured values from patent US10837044B2, “Automated method for analyzing and interpreting an antimicrobial susceptibility” (FONDATION MEDITERRANEE INFECTION, priority 2014, dated 2020).

What was measured:
Assay in all cases: antibiogram by diffusion on Mueller-Hinton agar with antibiotic wafers
Type in all cases: cell-based
Klebsiella pneumoniae = conditions: for resistant (I/R) or sensitive (S): Table C2, sixteen wafers, square dish; for resistance (I, R) or sensitivity (S): Table C1, six wafers, disk loads of Table B
Method: (§1) The inoculum was prepared by making a suspension of bacteria directly from colonies put into solution in tubes of sterile water so that the solution presented accurate opacity as determined with a spectrophotometer equivalent to the opacity of a 0.5 standard in the McFarland range. This bacterial suspension concentration is standardized since a more concentrated inoculum would lead to smaller diameters for the inhibition zone, and vice versa.
(§2) The inoculum corresponds to concentrations of about 10^8 CFU/mL for Escherichia coli, Klebsiella pneumoniae, Proteus mirabilis, Klebsiella oxytoca, Enterobacter cloacea, Enterobacter aerogenes, Entercoccus faecalis, Pseudomonas aeruginosa, Staphylococcus aureus, and Staphylococcus epidermidis. These are the ten species bacteria that are encountered the most frequently in human pathologies.
(§3) 1.2) The bacterial sample was deposited on a solid culture medium in a petri dish having a diameter of 90 mm or in a square dish having a side of 120 mm, the medium being constituted by a Mueller-Hinton agar specific for (EUCAST) antibiograms. Ideally, it should be used in the 15 minutes (min) following preparation of the suspension.
(§4) Seeding was done by the method of diffusion on an agar medium by flooding in which excess bacterial suspension was added to the Mueller-Hinton agar. After homogenizing, excess liquid was discarded in order to avoid over-inoculating the dishes. It is necessary to wait beforehand for the surface of the agar to be dry in order to eliminate any trace of moisture encouraging bacterial invasion.
(§5) The disks of the antibiotic wafers were deposited within 15 min after inoculating the agar. The antibiotic impregnated disks were deposited using an automatic dispenser that placed the disks firmly on the surface of the inoculated and dried agar. The number of disks deposited per dish was limited because of inhibition zone overlap and in order to limit interference between antibiotics. It is important for the inhibition diameters to be measurable. The antibiograms were then incubated at 37° C. for 18 hours (h) to 24 h.
(§6) The antibiotic wafers were made of high quality absorbent paper with a diameter of 6 mm and they were impregnated with antibiotics at concentrations in the range 1 micrograms (μg) to 300 μg approximately, depending on the antibiotic.
(§7) In the examples below, reference disks were used as sold by the suppliers i2a (Montpellier, France), BD (Becton Dickinson, USA), Bio-Rad (Hercules, USA), Biomerieux (Marcy l′Etoile, France) containing the following antibiotics and carrying the following codes and the following doses: AMX (amoxicillin) 25 μg: AMC (amoxicillin-clavulanic acid) 20 μg-10 μg; GM for gentamicin, 15 μg; SXT (trimethoprim-sulfamethoxazole) 1.25/23.75 μg; TIC (ticarcillin) 75 μg; TCC (ticarcillin-clavulanic acid) […]; TZP (piperacillin-tazobactam) 75/10 μg; CAZ (ceftazidime) 30 μg; IMP or IPM (imipeneme) 10 μg; COL (colistin) 50 μg; FOX (cefoxitine) 30 μg; VAN (vancomycin) 30 μg; TEC (teicoplanin) 30 μg; CLI or DA (clindamycin) 2 μg; CRO (ceftriaxone) 30 μg; CIP (ciprofloxacin) 5 μg; OFX (ofloxacin) 5 μg; CTX (cefotaxime) 5 μg; AN or AK (amikacin) 30 μg; TM (tobramycin) 10 μg; FOX (cefoxitine) 30 μg; ATM (aztreonam) 30 μg; ERT (ertapenem) 10 μg; FF (fosfomycin) 200 μg; DO (doxycycline) 30 μg; K (kanamycin) 1000 μg; L (lincomycin) 15 μs; LNZ (linezolid) 10 μg; AN (nalidixic acid) 30 μg; NOR (norfloxacin) 10 μg; PT (pristinamycin) 15 μg; RA (rifampicin) 5 μg; and E (erythromycin) 15 μg.

Proteus mirabilis = conditions: Table C1, six wafers, disk loads of Table B
Method: as §1, §2, §3, §4, §5, §6, §7

Entercoccus faecalis = conditions: Table C1, six wafers, disk loads of Table B
Method: as §1, §2, §3, §4, §5, §6, §7

Escherichia coli = conditions: for resistance (I, R) or sensitivity (S): Table C1, disk loads of Table B; for resistant (I/R) or sensitive (S): Table C2, square dish
Method: as §1, §2, §3, §4, §5, §6, §7

Staphylococcus aureus = conditions: for resistance (I, R) or sensitivity (S): Table C1, six wafers, disk loads of Table B; for resistant (I/R) or sensitive (S): Table C2, sixteen wafers, square dish
Method: as §1, §2, §3, §4, §5, §6, §7

[1] = tested on: Staphylococcus epidermidis; conditions: Table C1, six wafers, disk loads of Table B
Method: as §1, §2, §3, §4, §5, §6, §7

Enterobacter cloacea = conditions: Table C1, six wafers, disk loads of Table B
Method: as §1, §2, §3, §4, §5, §6, §7

Klebsiella oxytoca = conditions: Table C1; K. oxytoca phenotype Wild; six wafers, disk loads of Table B
Method: as §1, §2, §3, §4, §5, §6, §7

Enterobacter aerogenes = conditions: Table C1, six wafers, disk loads of Table B
Method: as §1, §2, §3, §4, §5, §6, §7

[2] = K. pneumoniae phenotype Cephalosporinase + R to aminosides + R to cotrimoxazole
[3] = E. coli phenotype Cephalosporinase + R to fluoroquinolones + R to cotrimoxazole + partial R to aminosides, sixteen wafers
[4] = E. coli phenotype Hl penicillinase + R to fluoroquinolones + R to cotrimoxazole + partial R to aminosides, sixteen wafers
[5] = E. coli phenotype Wild, sixteen wafers in a rectangular grid
[6] = S. aureus phenotype R to methicilline, R to aminosides, fluoroquinolones, to rifampicie, to macrolides and the like
[7] = S. aureus phenotype Methicillin resistant
[8] = S. epidermidis phenotype Methicillin resistant

Compound	resistant (I/R) or sensitive (S) (Klebsiella pneumoniae; [2])	resistant (I/R) or sensitive (S) (Klebsiella pneumoniae; K. pneumoniae phenotype Wild)	resistance (I, R) or sensitivity (S) (Entercoccus faecalis; E. faecalis phenotype Atypical)	resistance (I, R) or sensitivity (S) (Entercoccus faecalis; E. faecalis phenotype Wild)	resistant (I/R) or sensitive (S) (Escherichia coli; [3])	resistant (I/R) or sensitive (S) (Escherichia coli; [4])	resistant (I/R) or sensitive (S) (Escherichia coli; [5])	resistance (I, R) or sensitivity (S) (Staphylococcus aureus; S. aureus phenotype Wild)	resistant (I/R) or sensitive (S) (Staphylococcus aureus; [6])	resistant (I/R) or sensitive (S) (Staphylococcus aureus; S. aureus phenotype Wild)	resistance (I, R) or sensitivity (S) ([1]; S. epidermidis phenotype Wild)	resistance (I, R) or sensitivity (S) (Staphylococcus aureus; [7])	resistance (I, R) or sensitivity (S) [1, 8]	other results
CC1(C)S[C@@H]2[C@H](NC(=O)[C@H](N)c3ccc(O)cc3)C(=O)N2[C@H]1C(=O)O [AMX, amoxicillin]	R	R	R	S	R	R	S	–	–	–	–	–	–	resistance (I, R) or sensitivity (S) (Proteus mirabilis; P. mirabilis phenotype Hl cephalosporinase): R; resistance (I, R) or sensitivity (S) (Proteus mirabilis; P. mirabilis phenotype Hl penicillinase): R; resistance (I, R) or sensitivity (S) (Proteus mirabilis; P. mirabilis phenotype Inhibitor resistant penicillinase): R; resistance (I, R) or sensitivity (S) (Proteus mirabilis; P. mirabilis phenotype Ll penicillinase): R; resistance (I, R) or sensitivity (S) (Proteus mirabilis; P. mirabilis phenotype Wild): S; synergy zone between two antibiotic wafers placed side by side (Escherichia coli; E. coli cephalosporinase phenotype (FIGS. 2D, 2E)): absence of a zone of synergy; synergy zone between two antibiotic wafers placed side by side (Escherichia coli; E. coli strain of BSBL phenotype, champagne-cork shaped inhibition zone): presence of a zone of synergy; resistance (I, R) or sensitivity (S) (Escherichia coli; E. coli phenotype BSBL, six wafers): R; resistance (I, R) or sensitivity (S) (Escherichia coli; E. coli phenotype Carbapenemase, six wafers): R; resistance (I, R) or sensitivity (S) (Escherichia coli; E. coli phenotype Hl cephalosporinase, six wafers): R; resistance (I, R) or sensitivity (S) (Escherichia coli; E. coli phenotype Hl penicillinase, six wafers): R; resistance (I, R) or sensitivity (S) (Escherichia coli; E. coli phenotype Inhibitor resistant penicillinase, six wafers): R; resistance (I, R) or sensitivity (S) (Escherichia coli; E. coli phenotype Ll penicillinase, six wafers): R; resistance (I, R) or sensitivity (S) (Escherichia coli; E. coli phenotype Wild, six wafers in a circle): S
CCC[C@@H]1C[C@@H](C(=O)N[C@@H]([C@H]2O[C@H](SC)[C@H](O)[C@@H](O)[C@H]2O)[C@H](C)Cl)N(C)C1 [CLI, clindamycin]	–	–	–	–	–	–	–	S	R	S	S	–	–	–
CO[C@@]1(NC(=O)Cc2cccs2)C(=O)N2C(C(=O)O)=C(COC(N)=O)CS[C@@H]21 [FOX, cefoxitine]	S	S	–	–	S	S	S	S	R	S	S	R	R	–
CN[C@H](CC(C)C)C(=O)N[C@H]1C(=O)N[C@@H](CC(N)=O)C(=O)N[C@H]2C(=O)N[C@H]3C(=O)N[C@H](C(=O)N[C@H](C(=O)O)c4cc(O)cc(O)c4-c4cc3ccc4O)[C@H](O)c3ccc(c(Cl)c3)Oc3cc2cc(c3O[C@@H]2O[C@H](CO)[C@@H](O)[C@H](O)[C@H]2O[C@H]2C[C@](C)(N)[C@H](O)[C@H](C)O2)Oc2ccc(cc2Cl)[C@H]1O [VAN, vancomycin]	–	–	S	S	–	–	–	S	S	S	S	S	S	–
colistin	S	S	–	–	S	S	S	–	–	–	–	–	–	resistance (I, R) or sensitivity (S) (Enterobacter cloacea; E. cloacae phenotype BSBL): S; resistance (I, R) or sensitivity (S) (Enterobacter cloacea; E. cloacae phenotype Wild): S; resistance (I, R) or sensitivity (S) (Klebsiella pneumoniae; K. pneumoniae phenotype BSBL): S; resistance (I, R) or sensitivity (S) (Klebsiella pneumoniae; K. pneumoniae phenotype Carbapenemase): S; resistance (I, R) or sensitivity (S) (Klebsiella pneumoniae; K. pneumoniae phenotype Hl cephalosporinase): S; resistance (I, R) or sensitivity (S) (Klebsiella pneumoniae; K. pneumoniae phenotype Hl penicillinase): S; resistance (I, R) or sensitivity (S) (Klebsiella pneumoniae; K. pneumoniae phenotype Ll penicillinase): S; resistance (I, R) or sensitivity (S) (Klebsiella pneumoniae; K. pneumoniae phenotype Wild): S; resistance (I, R) or sensitivity (S) (Klebsiella oxytoca): S; resistance (I, R) or sensitivity (S) (Enterobacter aerogenes; E. aerogenes phenotype BSBL): S; resistance (I, R) or sensitivity (S) (Enterobacter aerogenes; E. aerogenes phenotype Wild): S
gentamicin	R	R	S	S	R	R	S	S	R	S	S	S	S	–
teicoplanin [TEC]	–	–	S	S	–	–	–	S	S	S	S	S	S	–
trimethoprim-sulfamethoxazole (cotrimoxazole) [SXT]	R	R	–	–	R	R	S	S	R	S	S	S	S	–
